According to patent publication US20100022527A1, “BIPHENYL SUBSTITUTED SPIROTETRONIC ACIDS AND THEIR USE FOR THE TREATMENT OF RETROVIRAL DISEASES” (priority 2006, published 2010):

The compounds below were run against T1, HIV-1 protease wild type protein (Human immunodeficiency virus type 1 group M subtype B, UniProt P04585) (assay: Biochemical protease assay).
T1 construct: HIV-1 protease wild type protein; purchased AscoProt Biotech, Prague, Czech Republic
Description: For the determination of their in vitro activity on HIV proteases the test substances are dissolved in DMSO and serially diluted. In each case 0.5 μl of substance dilution, 20 μl of 0.2-1 nM HIV-1 protease wild type or mutant protein (e.g., multiresistant isolate “35513”: L10I, I15V, L19I, K20R, E35D, M36I, R41K, I54V, L63P, H69K, A71V, T74P, I84V, L89M, L90M, 193L, AscoProt Biotech, Prague, Czech Republic) in buffer 1 (50 mM sodium acetate pH 4.9, 0.02% BSA, 0.1 mM EDTA, 0.5 mM DTT) and 20 μl of 8 μM substrate (M1865 from Bachem, Bubendorf, Switzerland; Matayoshi et al., Science 1990, 247, 954-8) in buffer 1 are added successively to a 384 well microtiter plate (Greiner, Frickenhausen, Germany), incubated for 60-180 minutes at 32° C. and the fluorescence is measured (e.g., Tecan Safire, 340 nm extinction, 520 nm emission). IC50 values are determined by graphical plotting the substance concentration against the percentage inhibition.

Compound	IC50 [nM]
Cc1cc(-c2cccc(S(C)(=O)=O)c2)c(Cl)cc1C1=C(O)C2(CCCN(S(=O)(=O)Cc3ccccc3)C2)OC1=O (stereo not drawn) [Example 110]	≤ 100
Cc1cc(-c2cccc(S(C)(=O)=O)c2)c(Cl)cc1C1=C(O)C2(CCCN(C(=O)/C=C/c3cccnc3)C2)OC1=O (stereo not drawn) [Example 111]	≤ 100
Cc1cc(-c2cccc(S(C)(=O)=O)c2)c(Cl)cc1C1=C(O)C2(CCCN(C(=O)CCCS(N)(=O)=O)C2)OC1=O (stereo not drawn) [Example 113]	≤ 100
Cc1cc(-c2cccc(S(C)(=O)=O)c2)c(Cl)cc1C1=C(O)C2(CCCN(S(=O)(=O)CCCC(F)(F)F)C2)OC1=O (stereo not drawn) [Example 114]	≤ 100
COCCNC(=O)CN1CCCC2(C1)OC(=O)C(c1cc(Cl)c(-c3cccc(S(C)(=O)=O)c3)cc1C)=C2O (stereo not drawn) [Example 116]	≤ 100
CC/C=C\C(=O)N1CCCC2(C1)OC(=O)C(c1cc(Cl)c(-c3cccc(S(C)(=O)=O)c3)cc1C)=C2O (stereo not drawn) [Example 120]	≤ 100
Cc1cc(-c2cccc(S(C)(=O)=O)c2)c(Cl)cc1C1=C(O)C2(CCCN(C(=O)/C=C\c3cnn(C)c3)C2)OC1=O (stereo not drawn) [Example 121]	≤ 100
C/C(=C\C(=O)N1CCCC2(C1)OC(=O)C(c1cc(Cl)c(-c3cccc(S(C)(=O)=O)c3)cc1C)=C2O)CO (stereo not drawn) [Example 122]	≤ 100
Cc1cc(-c2cccc(S(C)(=O)=O)c2)c(Cl)cc1C1=C(O)C2(CCCN(C(=O)/C=C\c3c[nH]cn3)C2)OC1=O (stereo not drawn) [Example 123]	≤ 100
Cc1cc(-c2cccc(S(C)(=O)=O)c2)c(Cl)cc1C1=C(O)C2(CCCN(C(=O)/C=C\c3cccc(C#N)c3)C2)OC1=O (stereo not drawn) [Example 124]	≤ 100
Cc1cc(-c2cccc(S(C)(=O)=O)c2)c(Cl)cc1C1=C(O)C2(CCCN(CC(=O)Nc3ccccc3)C2)OC1=O (stereo not drawn) [Example 126]	≤ 100
Cc1cc(-c2cccc(S(C)(=O)=O)c2)c(Cl)cc1C1=C(O)C2(CCCN(CC(=O)NCc3ccccc3)C2)OC1=O (stereo not drawn) [Example 128]	≤ 100
Cc1cc(-c2cccc(S(C)(=O)=O)c2)c(Cl)cc1C1=C(O)C2(CCCN(CC(=O)C(C)(CF)CF)C2)OC1=O (stereo not drawn) [Example 129]	≤ 100
Cc1cc(-c2cccc(S(C)(=O)=O)c2)c(Cl)cc1C1=C(O)C2(CCCN(CC(=O)NCCc3ccccc3)C2)OC1=O (stereo not drawn) [Example 130]	≤ 100
Cc1ccccc1CNC(=O)CN1CCCC2(C1)OC(=O)C(c1cc(Cl)c(-c3cccc(S(C)(=O)=O)c3)cc1C)=C2O (stereo not drawn) [Example 132]	≤ 100
Cc1ccc(CNC(=O)CN2CCCC3(C2)OC(=O)C(c2cc(Cl)c(-c4cccc(S(C)(=O)=O)c4)cc2C)=C3O)cc1 (stereo not drawn) [Example 133]	≤ 100
Cc1cc(-c2cccc(S(C)(=O)=O)c2)c(Cl)cc1C1=C(O)C2(CCCN(CC(=O)NC(C)c3ccccc3)C2)OC1=O (stereo not drawn) [Example 134]	≤ 100
Cc1cc(-c2cccc(S(C)(=O)=O)c2)c(Cl)cc1C1=C(O)C2(CCCN(C(=O)CCCc3ccccc3)C2)OC1=O (stereo not drawn) [Example 135]	≤ 100
Cc1cc(-c2cccc(S(C)(=O)=O)c2)c(Cl)cc1C1=C(O)C2(CCCN(C(=O)CC3CCCC3)C2)OC1=O (stereo not drawn) [Example 136]	≤ 100
COC(=O)CCCC(=O)N1CCC2(CC1)OC(=O)C(c1cc(Cl)c(-c3cccc(S(C)(=O)=O)c3)cc1C)=C2O [Example 138, methyl 5-{3-[2-chloro-5-methyl-3′-(methylsulfonyl)biphenyl-4-yl]-4-hydroxy-2-oxo-1-oxa-8-azaspiro[4.5]dec-3-en-8-yl}-5-oxopentanoate]	≤ 100
Cc1cc(-c2cccc(S(C)(=O)=O)c2)c(Cl)cc1C1=C(O)C2(CCN(C(=O)CCCC(C)C)CC2)OC1=O [Example 139]	≤ 100
Cc1cc(-c2cccc(S(C)(=O)=O)c2)c(Cl)cc1C1=C(O)C2(CCN(C(=O)CCCS(N)(=O)=O)CC2)OC1=O [Example 140]	≤ 100
COc1ccc(CCCC(=O)N2CCC3(CC2)OC(=O)C(c2cc(Cl)c(-c4cccc(S(C)(=O)=O)c4)cc2C)=C3O)cc1 [Example 141]	≤ 100
Cc1cc(-c2cccc(S(C)(=O)=O)c2)c(Cl)cc1C1=C(O)C2(CCN(C(=O)Cc3ccc(S(=O)(=O)O)cc3)CC2)OC1=O [Example 143]	≤ 100
Cc1cc(-c2cccc(S(C)(=O)=O)c2)c(Cl)cc1C1=C(O)C2(CCN(C(=O)Cc3ccc(OC(F)(F)F)cc3)CC2)OC1=O [Example 144]	≤ 100
Cc1cc(-c2cccc(S(C)(=O)=O)c2)c(Cl)cc1C1=C(O)C2(CCN(C(=O)CCCc3ccccc3)CC2)OC1=O [Example 145]	≤ 100
Cc1cc(-c2cccc(S(C)(=O)=O)c2)c(Cl)cc1C1=C(O)C2(CCN(C(=O)CCc3cccnc3)CC2)OC1=O [Example 147]	≤ 100

Compound	IC50 [nM]
Cc1cc(-c2cccc(S(C)(=O)=O)c2)c(Cl)cc1C1=C(O)C2(CCN(C(=O)OCC(C)(C)C)CC2)OC1=O [Example 152]	≤ 100
CCOC(=O)N1CCC2(CC1)OC(=O)C(c1cc(Cl)c(-c3cccc(S(C)(=O)=O)c3)cc1C)=C2O [Example 153]	≤ 100
Cc1cc(-c2cccc(S(C)(=O)=O)c2)c(Cl)cc1C1=C(O)C2(CCN(C(=O)N3CCCC3)CC2)OC1=O [Example 155]	≤ 100
Cc1cc(-c2cccc(S(C)(=O)=O)c2)c(Cl)cc1C1=C(O)C2(CCN(C(=O)N(C(C)C)C(C)C)CC2)OC1=O [Example 156]	≤ 100
CCN(CC)C(=O)N1CCC2(CC1)OC(=O)C(c1cc(Cl)c(-c3cccc(S(C)(=O)=O)c3)cc1C)=C2O [Example 157]	≤ 100
CC(=O)N1CCC2(CC1)OC(=O)C(c1cc(Cl)c(-c3cccc(S(C)(=O)=O)c3)cc1C)=C2O [Example 158]	≤ 100
Cc1cc(-c2cccc(S(C)(=O)=O)c2)c(Cl)cc1C1=C(O)C2(CCCN(CC(=O)NCc3ccncc3)C2)OC1=O (stereo not drawn) [Example 161, 2-{3-[2-Chloro-5-methyl-3′-(methylsulfonyl)biphenyl-4-yl]-4-hydroxy-2-oxo-1-oxa-7-azaspiro[4.5]dec-3-en-7-yl}-N-(pyridin-4-ylmethyl)acetamide]	≤ 100
Cc1cc(-c2cccc(S(C)(=O)=O)c2)c(Cl)cc1C1=C(O)C2(CCCN(CC(=O)NCc3cccnc3)C2)OC1=O (stereo not drawn) [Example 162]	≤ 100
Cc1cc(-c2cccc(S(C)(=O)=O)c2)c(Cl)cc1C1=C(O)C2(CCCN(CC(=O)NCc3ccccn3)C2)OC1=O (stereo not drawn) [Example 163]	≤ 100
Cc1cc(-c2cccc(S(C)(=O)=O)c2)c(Cl)cc1C1=C(O)C2(CCCN(CC(=O)NCc3ccc(OC(F)(F)F)cc3)C2)OC1=O (stereo not drawn) [Example 166]	≤ 100
Cc1cc(-c2cccc(S(C)(=O)=O)c2)c(Cl)cc1C1=C(O)C2(CCCN(CC(=O)NCc3ccsc3)C2)OC1=O (stereo not drawn) [Example 167]	≤ 100
Cc1cc(-c2cccc(S(C)(=O)=O)c2)c(Cl)cc1C1=C(O)C2(CCCN(CC(=O)NCc3ccoc3)C2)OC1=O (stereo not drawn) [Example 168]	≤ 100
Cc1cc(-c2cccc(S(C)(=O)=O)c2)c(Cl)cc1C1=C(O)C2(CCCN(CC(=O)NCc3ccco3)C2)OC1=O (stereo not drawn) [Example 169]	≤ 100
Cc1cc(-c2cccc(S(C)(=O)=O)c2)c(Cl)cc1C1=C(O)C2(CCCN(CC(=O)NCc3cccs3)C2)OC1=O (stereo not drawn) [Example 170]	≤ 100
Cc1cc(-c2ccc(N)cc2)c(Cl)cc1C1=C(O)C2(CCCCC2)OC1=O [Example 171, 3-(4′-Amino-2-chloro-5-methylbiphenyl-4-yl)-4-hydroxy-1-oxaspiro[4.5]dec-3-en-2-one]	≤ 100
Cc1cc(-c2cccc(N)c2)c(Cl)cc1C1=C(O)[C@]2(CC[C@@H]3CCC[C@@H]3C2)OC1=O [Example 175]	≤ 100
Cc1cc(-c2cccc(NS(C)(=O)=O)c2)c(Cl)cc1C1=C(O)C2(CCCCC2)OC1=O [Example 176, N-[2′-Chloro-4′-(4-hydroxy-2-oxo-1-oxaspiro[4.5]dec-3-en-3-yl)-5′-methylbiphenyl-3-yl]methanesulfonamide]	≤ 100
CCCS(=O)(=O)Nc1cccc(-c2cc(C)c(C3=C(O)C4(CCCCC4)OC3=O)cc2Cl)c1 [Example 177]	≤ 100
Cc1cc(-c2ccc(NS(C)(=O)=O)cc2)c(Cl)cc1C1=C(O)C2(CCCCC2)OC1=O [Example 178]	≤ 100
Cc1cc(-c2ccc(NS(C)(=O)=O)cc2)c(Cl)cc1C1=C(O)C2(CCC3CCCC3C2)OC1=O (stereo not drawn) [Example 180]	≤ 100
Cc1cc(-c2cccc(NC(=O)CCCN(C)C)c2)c(Cl)cc1C1=C(O)C2(CCCCC2)OC1=O [Example 181]	≤ 100
Cc1cc(-c2cccc(NC(=O)CN(C)C)c2)c(Cl)cc1C1=C(O)[C@]2(CC[C@@H]3CCC[C@@H]3C2)OC1=O [Example 182]	≤ 100
Cc1cc(-c2cccc(NC(=O)CCN)c2)c(Cl)cc1C1=C(O)[C@]2(CC[C@@H]3CCC[C@@H]3C2)OC1=O [Example 183]	≤ 100
CC(=O)Nc1cc(-c2cc(C)c(C3=C(O)C4(CCCCC4)OC3=O)cc2Cl)ccc1C [Example 184, N-[2′-Chloro-4′-(4-hydroxy-2-oxo-1-oxaspiro[4.5]dec-3-en-3-yl)-4,5′-dimethylbiphenyl-3-yl]acetamide]	≤ 100
Cc1cc(-c2cccc(N(C)S(C)(=O)=O)c2)c(Cl)cc1C1=C(O)C2(CCCCC2)OC1=O [Example 185, N-[2′-Chloro-4′-(4-hydroxy-2-oxo-1-oxaspiro[4.5]dec-3-en-3-yl)-5′-methylbiphenyl-3-yl]-N-methylmethanesulfonamide]	≤ 100
Cc1cc(-c2cccc(NS(C)(=O)=O)c2)c(Cl)cc1C1=C(O)C2(CCC3CCCC3C2)OC1=O (stereo not drawn) [Example 189]	≤ 100
CCS(=O)(=O)Nc1cccc(-c2cc(C)c(C3=C(O)C4(CCCCC4)OC3=O)cc2Cl)c1 [Example 190]	≤ 100
